Data from PMC8962293, “Synthesis, Structure, and Antiproliferative Action of 2-Pyridyl Urea-Based Cu(II) Complexes” (Biomedicines, 2022).

Tests used:
MTT assay on A549 cells = assay type: cell-based, human; conditions: human, A549 lung carcinoma cells, 72 h, read-out: Cell Viability, %; for viability at 72 h, 10 µM: A549, 10 µM; for viability at 72 h, 100 µM: A549, 100 µM
Protocol: (§1) A549, NCI-H460, NCI-H1975 lung cancer cells and WI-26 VA4 lung epithelial-like cells were purchased from the ATCC. A549 cells were maintained in F12-K (Corning, NY, USA) supplemented with 10% fetal bovine serum (Fetal Bovine Serum, qualified, Australia; Gibco, Loughborough, UK), penicillin (100 UI mL^−1), streptomycin (100 µg mL^−1), and GlutaMax (1.9 mM, Gibco, UK). NCI-H460 and NCI-H1975 cells were maintained in RPMI-1640 (ATCC modification) media (Gibco, Loughborough, UK) supplemented with 10% fetal bovine serum (Fetal Bovine Serum, qualified, Australia; Gibco, Loughborough, UK), penicillin (100 UI mL^−1), streptomycin (100 µg mL^−1), and GlutaMax (2 mM, Gibco, UK). WI-26 VA4 cells were maintained in Advanced MEM (Gibco, Loughborough, UK) supplemented with 5% fetal bovine serum (Fetal Bovine Serum, qualified, Australia, Gibco, UK), penicillin (100 UI mL^−1), streptomycin (100 µg mL^−1), and GlutaMax (1.87 mM, Gibco, Loughborough, UK). All cells line cultivation under a humidified atmosphere of 95% air/5% CO2 at 37 °C. Subconfluent monolayers, in the log growth phase, were harvested by a brief treatment with TrypLE Express solution (Gibco, Loughborough, UK) in phosphate buffered saline (PBS, Capricorn Scientific, Germany) and washed three times in serum-free PBS. The number of viable cells was determined by trypan blue exclusion.
(§2) The effects of the synthesized compounds on cell viability were determined using the MTT colorimetric test. All examined cells were diluted with the growth medium to 3.5 × 10^4 cells per mL and the aliquots (7 × 10^3 cells per 200 μL) were placed in individual wells in 96-well plates (Eppendorf, Hamburg, Germany) and incubated for 24 h. The next day, the cells were treated with synthesized compounds separately in concentration 10 and 100 μM (or 200.0 μM concentration and diluted at various concentrations for determination of IC50) and incubated for 72 h at 37 °C in 5% CO2 atmosphere. Each compound was tested in triplicate. After incubation, the cells were treated with 40 μL MTT solution (3-(4,5-dimethylthiazol-2-yl)-2,5-diphenyltetrazolium bromide, 5 mg mL^−1 in PBS) and incubated for 4 h. After additional 4-h incubation, the medium with MTT was removed and DMSO (150 μL) was added to dissolve the formazan crystals. The plates were shaken for 10 min. The optical density of each well was determined at 560 nm using GloMax Multi+ (Promega, Madison, WI, USA) microplate reader. Each of the tested compounds was evaluated for cytotoxicity in three separate experiments. All stock solutions for biological evaluations were prepared via dissolving synthesized compounds in DMSO.

[1] = test system: EGFR-mutant NCI-H1975 non-small cell lung carcinoma cells; assay: MTT assay on NCI-H1975 cells; assay type: cell-based, human; conditions: for IC50: NCI-H1975, 72 h, MTT
Protocol: as §1, §2

[2] = test system: NCI-H460 non-small cell lung carcinoma cells; assay: MTT assay on NCI-H460 cells; assay type: cell-based, human; conditions: NCI-H460, 72 h
Protocol: as §1, §2

[3] = test system: A549 human lung carcinoma cells; assay: MTT assay on A549 cells; assay type: cell-based; conditions: A549, 72 h
Protocol: as §1, §2

[4] = test system: non-cancerous lung fibroblast WI-26 VA4; assay: MTT assay on WI-26 VA4 cells (non-specific cytotoxicity); assay type: cell-based, human; conditions: WI-26 VA4, 72 h
Protocol: as §1, §2

[5] = Molar conductivity in DMSO solution; assay type: physicochemical; conditions: DMSO solutions, 25 °C
Protocol: The preparation and characterization of starting pyridine-N-oxides as well as U1–12 are described previously. CuCl2, other reactants, and solvents were obtained from commercial sources. High-resolution mass-spectra (HRMS) were measured on Bruker Maxis HRMS-ESI-qTOF (Electrospray Ionization, ESI; Bruker, Billerica, MA, USA); a MeOH was used as the solvent. The instrument was operated at positive ion mode using m/z range of 50–3000. The capillary voltage of the ion source was set at –4500 V (ESI^+) and the capillary exit at +(70–150) V. The nebulizer gas pressure was 0.4 bar and drying gas flow was 4.0 L/min. The most intensive peak in the isotopic pattern is reported. Infrared spectra (4000–400 cm^–1) were recorded on a Shimadzu FTIR 8400S (Shimadzu, Kyoto, Japan) instrument in KBr pellets. The C, H, and N elemental analyses were carried out on a Leco TruSpec Micro CHNS analyzer (LECO, St. Joseph, MI, USA). TGA was performed on a ca. 2 mg samples of Cu(II) complexes by using a Netzsch TG 209 F1 Libra thermal analyzer (Netzsch, Selb, Germany). The samples were dried under a vacuum at 50 °C before heating from 40 to 450 °C at a heating rate of 10 K min^–1. A flow rate of 10 mL min^–1 of dry argon was used to purge the samples. Molar conductivity was measured with an Elico digital conductivity bridge model CM-88, using a freshly prepared DMSO solution of the complexes.

NCI-H1975 cells [6] = assay: Cell cycle analysis by flow cytometry; assay type: cell-based, human; conditions: NCI-H1975, 10, 20, and 35 μM, 48 h
Protocol: For the cell cycle analysis, the cells (1 × 10^6 per well) were placed at 6-well culture plates (Eppendorf, Germany) and allowed to grow overnight. After the medium was replaced with solution tested compounds (10, 20, or 35 μM). The exposed cells were placed at 37 °C in a 5% CO2 incubator for 48 h. After the completion of incubations, cells were harvested by trypsinization, washed with PBS, centrifuged, fixed with 70% ethanol and incubated for 7 h at –20 °C. An aliquot of the pellet (200 µL) was washed with PBS, stained with 200 µL of the Guava Cell Cycle Reagent (Merck, Kenilworth, NJ, USA), and incubated for 30 min at room temperature in the dark. The cell cycle distribution was analyzed by flow cytometry on a CytoFlex (Beckham Coulter, Brea, CA, USA) and CytExpert 2.1 program.

NCI-H1975 cells [7] = assay: Annexin V-FITC/PI double staining apoptosis assay; assay type: cell-based, human; conditions: NCI-H1975, 50 μM, 48-h incubation
Protocol: For the detection of apoptosis, the cells were placed at 6-well culture plates (Eppendorf, Germany) and allowed to grow overnight. After the cells reached subconfluency, the medium was replaced with tested compounds (25 or 50 μM). The exposed cells were placed at 37 °C in a 5% CO2 incubator for 24 or 48 h. The cultured cells were washed twice with PBS and resuspended in 1× binding buffer (AnnexinV-FITC kit, Invitrogen, Waltham, MA, USA) at a concentration 1 × 10^6 mL^−1. Annexin FITC (5 μL) and propidium iodide (PI, 2 μL) were added to 100 μL of the cell suspension and incubated for 15 min at room temperature (25 °C) in the dark. After incubation, 400 μL of 1× binding buffer was added to each tube and the stained cells were analyzed within 1 h using CytoFlex (Beckman Coulter, Brea, CA, USA) and CytExpert 2.1 program. Since the AnnexinV-FITC staining precedes the loss of membrane integrity that accompanies the later stage identified by PI, Annexin FITC positive, PI negative indicates early apoptosis, while the viable cells are Annexin V FITC negative, PI negative. The cells that are in late apoptosis or dead are both Annexin V FITC and PI positive.

| Compound | viability at 72 h, 10 µM (MTT assay on A549 cells) [%] | viability at 72 h, 100 µM (MTT assay on A549 cells) [%] | IC50 [1] [µM] | IC50 [2] [µM] | IC50 [3] [µM] | IC50 [4] [µM] | further results |
| --- | --- | --- | --- | --- | --- | --- | --- |
| CN(C)C(=O)Nc1ccccn1 [Complex U1] | 100 ± 18 | 86.5 ± 7.5 | – | – | – | – | – |
| Cc1ccnc(NC(=O)N(C)C)c1 [Complex U2] | 102 ± 2.7 | 98.7 ± 3.8 | – | – | – | – | – |
| CN(C)C(=O)Nc1cc([N+](=O)[O-])ccn1 [Complex U3] | 95.5 ± 3.3 | 91.6 ± 4.3 | – | – | – | – | – |
| CN(C)C(=O)Nc1cc(C#N)ccn1 [Complex U4] | 94.2 ± 6.7 | 89 ± 5.1 | – | – | – | – | – |
| Cc1nc(-c2ccnc(NC(=O)N(C)C)c2)no1 [Complex U5] | 101 ± 5.5 | 90.2 ± 8.7 | – | – | – | – | – |
| Cc1nnc(-c2ccnc(NC(=O)N(C)C)c2)o1 [Complex U6] | 94.5 ± 7.1 | 89.9 ± 2.4 | – | – | – | – | – |
| O=C(Nc1ccccn1)N1CCCC1 [Complex U7] | 103 ± 2.8 | 99.8 ± 5.7 | – | – | – | – | – |
| O=C(Nc1ccccn1)N1CCCCC1 [Complex U8] | 100 ± 9.4 | 97.2 ± 6.1 | – | – | – | – | – |
| Cc1ccnc(NC(=O)N2CCCCC2)c1 [Complex U9] | 103 ± 6.3 | 98.3 ± 8.1 | – | – | – | – | – |
| COc1ccnc(NC(=O)N2CCCCC2)c1 [Complex U10] | 102 ± 5.2 | 99.5 ± 8.1 | – | – | – | – | – |
| O=C(Nc1cc([N+](=O)[O-])ccn1)N1CCCCC1 [Complex U11] | 105 ± 6.7 | 94.3 ± 9 | – | – | – | – | – |
| Cc1ccnc(NC(=O)N2CCOCC2)c1 [Complex U12] | 97.4 ± 5.5 | 85.4 ± 7.8 | – | – | – | – | – |
| CN(C)C(=O)Nc1ccccn1.CN(C)C(=O)Nc1ccccn1.[Cl-].[Cl-].[Cu+2] [[Cu(U1)2Cl]^+[Cl]^−] | – | – | 65.3 ± 10.9 | 120 ± 18.4 | 107 ± 15.1 | 108 ± 27.5 | – |
| Cc1ccnc(NC(=O)N(C)C)c1.Cc1ccnc(NC(=O)N(C)C)c1.[Cl-].[Cl-].[Cu+2] [[Cu(U2)2Cl]^+[Cl]^−] | – | – | 65.4 ± 8.6 | 122 ± 15.3 | 94.5 ± 14.1 | 101 ± 15.1 | Molar conductivity [5]: 24.8 Ω^−1·cm^2·mol^−1 |
| CN(C)C(=O)Nc1cc([N+](=O)[O-])ccn1.CN(C)C(=O)Nc1cc([N+](=O)[O-])ccn1.[Cl-].[Cl-].[Cu+2] [[Cu(U3)2Cl2]] | – | – | 39.6 ± 4.5 | 77.5 ± 6.4 | 61.4 ± 6.52 | 81.6 ± 10.1 | selectivity over the healthy human cells WI-26 VA4 ([1]; NCI-H1975 vs WI-26 VA4): the most selective; cells trapped in the G2 phase (NCI-H1975 cells [6]): profound increase; number of cells in the G1 phase (NCI-H1975 cells [6]): remarkable drop; Molar conductivity [5]: 24.1 Ω^−1·cm^2·mol^−1; percentage of dead cells (NCI-H1975 cells [7]; control 0.28%): 2.87%; percent of Annexin V FITC-positive early apoptotic cells (NCI-H1975 cells [7]; control 5.25%): 16.30%; late apoptotic fraction in cell population (NCI-H1975 cells [7]; control 12.02%): 22.38% |
| CN(C)C(=O)Nc1cc(C#N)ccn1.CN(C)C(=O)Nc1cc(C#N)ccn1.[Cl-].[Cl-].[Cu+2] [[Cu(U4)2Cl]^+[Cl]^−] | – | – | 68.3 ± 8.5 | 118 ± 13.4 | 106 ± 12.2 | 109 ± 16.4 | Molar conductivity [5]: 25.2 Ω^−1·cm^2·mol^−1 |
| Cc1nc(-c2ccnc(NC(=O)N(C)C)c2)no1.Cc1nc(-c2ccnc(NC(=O)N(C)C)c2)no1.[Cl-].[Cl-].[Cu+2] [[Cu(U5)2Cl]^+[Cl]^−] | – | – | 71.2 ± 6.9 | 136 ± 12.5 | 114 ± 14.5 | 118 ± 24.9 | – |
| Cc1nnc(-c2ccnc(NC(=O)N(C)C)c2)o1.Cc1nnc(-c2ccnc(NC(=O)N(C)C)c2)o1.[Cl-].[Cl-].[Cu+2] [[Cu(U6)2Cl]^+[Cl]^−] | – | – | 63.8 ± 8.7 | 115 ± 26.3 | 88.7 ± 12.7 | 105 ± 14.1 | – |
| O=C(Nc1ccccn1)N1CCCC1.O=C(Nc1ccccn1)N1CCCC1.[Cl-].[Cl-].[Cu+2] [[Cu(U7)2Cl]^+[Cl]^−] | – | – | 66.7 ± 7.6 | 103 ± 13.1 | 102 ± 15.8 | 100 ± 16.6 | – |
| O=C(Nc1ccccn1)N1CCCCC1.O=C(Nc1ccccn1)N1CCCCC1.[Cl-].[Cl-].[Cu+2] [[Cu(U8)2Cl]^+[Cl]^−] | – | – | 64.4 ± 10.5 | 102 ± 17.3 | 98.4 ± 11.1 | 111 ± 19.3 | – |
| Cc1ccnc(NC(=O)N2CCCCC2)c1.Cc1ccnc(NC(=O)N2CCCCC2)c1.[Cl-].[Cl-].[Cu+2] [[Cu(U9)2Cl]^+[Cl]^−] | – | – | 61.6 ± 6 | 66.4 ± 5.7 | 76.1 ± 8.86 | 113 ± 23.5 | – |
| O=C(Nc1cc([N+](=O)[O-])ccn1)N1CCCCC1.O=C(Nc1cc([N+](=O)[O-])ccn1)N1CCCCC1.[Cl-].[Cl-].[Cu+2] [[Cu(U11)2Cl2]] | – | – | 33.4 ± 3.8 | 53.6 ± 4.7 | 46 ± 4.98 | 62.4 ± 5.6 | Molar conductivity [5]: 21.7 Ω^−1·cm^2·mol^−1 |
| Cc1ccnc(NC(=O)N2CCOCC2)c1.Cc1ccnc(NC(=O)N2CCOCC2)c1.[Cl-].[Cl-].[Cu+2] [[Cu(U12)2Cl]^+[Cl]^−] | – | – | 70.2 ± 4.9 | 128 ± 19.5 | 89.3 ± 6.67 | 109 ± 13.7 | – |
